How the values were obtained:
[1] = biological target: T1, 5-hydroxytryptamine receptor 1A (Homo sapiens, UniProt P08908); assay type: functional, cell-based
T1 sequence (P08908 whole entry): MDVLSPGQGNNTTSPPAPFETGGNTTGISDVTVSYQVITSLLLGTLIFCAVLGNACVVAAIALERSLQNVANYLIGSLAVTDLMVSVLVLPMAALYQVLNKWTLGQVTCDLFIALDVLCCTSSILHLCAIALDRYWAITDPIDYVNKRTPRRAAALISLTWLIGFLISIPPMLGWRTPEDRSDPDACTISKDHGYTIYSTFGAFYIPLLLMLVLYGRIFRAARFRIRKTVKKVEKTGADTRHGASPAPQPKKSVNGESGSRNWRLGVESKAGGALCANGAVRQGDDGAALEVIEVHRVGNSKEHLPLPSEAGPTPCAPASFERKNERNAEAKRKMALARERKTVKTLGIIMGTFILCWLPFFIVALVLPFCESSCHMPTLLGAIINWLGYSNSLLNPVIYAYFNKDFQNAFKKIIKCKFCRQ

[2] = biological target: Cannabinoid receptor 1 (Homo sapiens, UniProt P21554)
[3] = biological target: T2, Estrogen receptor (Homo sapiens, UniProt P03372)
T2 sequence (P03372 whole entry): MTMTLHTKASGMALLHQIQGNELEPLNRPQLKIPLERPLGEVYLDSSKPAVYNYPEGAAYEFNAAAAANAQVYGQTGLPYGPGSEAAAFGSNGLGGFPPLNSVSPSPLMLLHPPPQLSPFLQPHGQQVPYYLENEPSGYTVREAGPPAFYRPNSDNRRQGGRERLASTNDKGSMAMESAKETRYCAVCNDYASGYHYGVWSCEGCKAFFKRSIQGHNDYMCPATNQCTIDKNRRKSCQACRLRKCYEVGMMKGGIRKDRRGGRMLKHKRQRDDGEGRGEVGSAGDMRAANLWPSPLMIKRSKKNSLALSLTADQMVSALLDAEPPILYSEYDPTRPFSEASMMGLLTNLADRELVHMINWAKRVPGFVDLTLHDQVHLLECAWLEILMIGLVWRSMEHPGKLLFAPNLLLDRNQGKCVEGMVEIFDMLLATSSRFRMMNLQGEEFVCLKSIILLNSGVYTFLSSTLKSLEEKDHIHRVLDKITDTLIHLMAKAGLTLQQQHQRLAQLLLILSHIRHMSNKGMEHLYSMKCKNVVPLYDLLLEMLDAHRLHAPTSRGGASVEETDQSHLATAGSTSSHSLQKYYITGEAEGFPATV

[4] = biological target: Melanocortin receptor 4 (Homo sapiens, UniProt P32245)
[5] = biological target: T3, Muscarinic acetylcholine receptor M1 (Homo sapiens, UniProt P11229); assay type: functional
T3 sequence (P11229 whole entry): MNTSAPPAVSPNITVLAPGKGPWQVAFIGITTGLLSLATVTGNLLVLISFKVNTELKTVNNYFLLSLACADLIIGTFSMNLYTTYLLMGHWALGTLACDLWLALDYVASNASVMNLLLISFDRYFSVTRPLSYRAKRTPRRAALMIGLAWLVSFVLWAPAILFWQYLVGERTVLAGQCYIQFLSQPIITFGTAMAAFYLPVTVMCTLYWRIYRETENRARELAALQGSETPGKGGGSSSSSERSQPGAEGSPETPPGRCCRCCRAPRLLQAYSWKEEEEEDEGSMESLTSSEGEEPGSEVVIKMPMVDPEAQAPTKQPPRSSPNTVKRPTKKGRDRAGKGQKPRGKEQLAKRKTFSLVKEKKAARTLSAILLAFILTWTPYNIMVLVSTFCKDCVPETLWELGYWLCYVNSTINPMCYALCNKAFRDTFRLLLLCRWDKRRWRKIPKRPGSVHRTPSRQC
Note: assay procedure not described here.

Melanocortin receptor 4, sequence (P32245 whole entry): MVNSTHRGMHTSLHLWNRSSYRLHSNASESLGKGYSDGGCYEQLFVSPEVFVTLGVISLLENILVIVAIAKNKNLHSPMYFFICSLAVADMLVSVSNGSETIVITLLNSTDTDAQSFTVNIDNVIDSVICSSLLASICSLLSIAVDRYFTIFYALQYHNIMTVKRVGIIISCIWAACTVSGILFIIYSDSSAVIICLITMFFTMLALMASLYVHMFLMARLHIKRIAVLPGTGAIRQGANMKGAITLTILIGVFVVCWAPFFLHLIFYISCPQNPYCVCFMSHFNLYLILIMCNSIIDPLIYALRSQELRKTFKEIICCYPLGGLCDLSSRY
Cannabinoid receptor 1, sequence (P21554 whole entry): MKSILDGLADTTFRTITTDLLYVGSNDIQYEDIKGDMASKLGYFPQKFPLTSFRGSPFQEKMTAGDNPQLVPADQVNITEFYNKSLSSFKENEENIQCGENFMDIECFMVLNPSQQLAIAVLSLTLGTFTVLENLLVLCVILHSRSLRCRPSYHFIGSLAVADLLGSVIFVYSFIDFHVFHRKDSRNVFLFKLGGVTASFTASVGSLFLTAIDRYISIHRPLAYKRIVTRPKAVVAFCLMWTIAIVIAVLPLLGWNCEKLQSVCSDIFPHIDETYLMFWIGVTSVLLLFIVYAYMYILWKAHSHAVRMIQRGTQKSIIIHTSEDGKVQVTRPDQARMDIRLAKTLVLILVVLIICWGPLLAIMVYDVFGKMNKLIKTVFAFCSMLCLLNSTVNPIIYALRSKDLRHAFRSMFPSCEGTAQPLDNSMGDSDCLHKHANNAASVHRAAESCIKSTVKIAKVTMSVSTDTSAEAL

`C[C@]12CC[C@H](O)CC1=CC[C@@H]1[C@@H]2CC[C@]2(C)C(c3cccnc3)=CC[C@@H]12` [ABIRATERONE] was tested, and the AC50 [1] was > 10 µM, the AC50 [2] was > 10 µM and the AC50 [3] was > 30 µM. For the same molecule, the AC50 [4] was > 30 µM and the AC50 [5] was > 10 µM.

Reference: ChEMBL document CHEMBL5291721, “A preclinical secondary pharmacology resource illuminates target-adverse drug reaction associations of marketed drugs” (Nat Commun, 2023)
